According to US20260207572A1, “METHODS AND COMPOSITIONS FOR TREATMENT OF SUBJECTS WITH HEPATIC IMPAIRMENTS” (ELEVAR THERAPEUTICS, INC., priority 2022, published 2026):

Key:
[1] = target: T1, CYP1A2 (Homo sapiens, UniProt P05177); experiment: In vitro CYP phenotyping and metabolism study, recombinant CYP1A2; format: in vitro ADME
T1 sequence (P05177 1-516): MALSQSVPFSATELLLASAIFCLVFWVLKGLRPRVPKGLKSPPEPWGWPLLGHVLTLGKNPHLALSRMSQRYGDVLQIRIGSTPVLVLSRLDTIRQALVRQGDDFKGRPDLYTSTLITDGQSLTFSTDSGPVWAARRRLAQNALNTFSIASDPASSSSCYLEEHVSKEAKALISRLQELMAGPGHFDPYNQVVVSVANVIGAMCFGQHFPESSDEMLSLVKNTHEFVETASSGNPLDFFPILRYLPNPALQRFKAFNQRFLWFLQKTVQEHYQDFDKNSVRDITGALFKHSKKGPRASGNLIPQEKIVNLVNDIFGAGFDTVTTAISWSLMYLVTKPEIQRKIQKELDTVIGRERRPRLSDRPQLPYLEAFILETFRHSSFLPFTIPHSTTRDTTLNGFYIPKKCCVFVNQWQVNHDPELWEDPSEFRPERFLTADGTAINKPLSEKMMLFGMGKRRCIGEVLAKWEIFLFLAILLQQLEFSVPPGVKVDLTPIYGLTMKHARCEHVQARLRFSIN
Procedure: (§1) Recently, an in vitro cytochrome (CYP) phenotyping and metabolism study was performed.

[2] = target: T2, CYP2B6 (Homo sapiens, UniProt P20813); experiment: In vitro CYP phenotyping and metabolism study, recombinant CYP2B6; format: in vitro ADME
T2 sequence (P20813 1-491): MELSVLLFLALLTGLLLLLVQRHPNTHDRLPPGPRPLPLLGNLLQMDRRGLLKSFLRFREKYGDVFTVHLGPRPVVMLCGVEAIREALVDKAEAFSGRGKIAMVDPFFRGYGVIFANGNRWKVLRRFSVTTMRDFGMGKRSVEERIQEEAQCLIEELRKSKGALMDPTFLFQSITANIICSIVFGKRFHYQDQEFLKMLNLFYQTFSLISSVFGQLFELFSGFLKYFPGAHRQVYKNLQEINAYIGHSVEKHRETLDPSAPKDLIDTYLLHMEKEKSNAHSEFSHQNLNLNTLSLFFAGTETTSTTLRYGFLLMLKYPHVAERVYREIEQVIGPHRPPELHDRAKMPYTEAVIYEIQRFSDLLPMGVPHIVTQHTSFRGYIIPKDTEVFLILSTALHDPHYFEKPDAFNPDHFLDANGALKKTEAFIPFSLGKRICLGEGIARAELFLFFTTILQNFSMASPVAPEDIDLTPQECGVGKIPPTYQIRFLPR
Procedure: as §1

[3] = target: T3, CYP2C8 (Homo sapiens, UniProt P10632); experiment: In vitro CYP phenotyping and metabolism study, recombinant CYP2C8; format: in vitro ADME
T3 sequence (P10632 1-490): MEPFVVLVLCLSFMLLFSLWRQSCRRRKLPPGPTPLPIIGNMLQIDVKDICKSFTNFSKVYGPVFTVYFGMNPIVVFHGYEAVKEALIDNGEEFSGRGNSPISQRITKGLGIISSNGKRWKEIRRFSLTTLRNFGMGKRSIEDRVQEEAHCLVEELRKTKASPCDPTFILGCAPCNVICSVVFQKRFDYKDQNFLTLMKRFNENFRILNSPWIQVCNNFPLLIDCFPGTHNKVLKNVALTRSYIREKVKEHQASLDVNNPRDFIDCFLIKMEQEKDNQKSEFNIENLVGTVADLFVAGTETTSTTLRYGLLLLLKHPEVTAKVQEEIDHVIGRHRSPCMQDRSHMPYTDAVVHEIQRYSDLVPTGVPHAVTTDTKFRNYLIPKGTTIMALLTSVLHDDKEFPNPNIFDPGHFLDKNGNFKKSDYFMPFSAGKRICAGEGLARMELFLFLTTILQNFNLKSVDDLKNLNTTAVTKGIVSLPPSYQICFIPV
Procedure: as §1

[4] = target: CYP2C9 (Homo sapiens, UniProt P11712); experiment: In vitro CYP phenotyping and metabolism study, recombinant CYP2C9; format: in vitro ADME
Procedure: as §1

[5] = target: CYP2D6 (Homo sapiens, UniProt P10635); experiment: In vitro CYP phenotyping and metabolism study, recombinant CYP2D6; format: in vitro ADME
Procedure: as §1

[6] = target: CYP3A4 (Homo sapiens, UniProt P08684); experiment: In vitro CYP phenotyping and metabolism study, recombinant CYP3A4; format: in vitro ADME
Procedure: as §1

[7] = Phase 1 study: safety and tolerability; format: in vivo, human
Source text: Safety was monitored through recording of adverse events (AEs), clinical laboratory evaluations (clinical chemistry, hematology, coagulation parameters, and urinalysis), vital sign measurements, 12-lead electrocardiograms (ECGs), and physical examination findings during the study.
Safety measures for this study included AEs, incidence of laboratory abnormalities (based on hematology, clinical chemistry, coagulation, and urinalysis test results), 12-lead ECG parameters, vital sign measurements, and physical examinations.
All adverse events and observed values from clinical laboratory evaluations, 12-lead ECGs, vital sign measurements, and physical examinations were listed and summarized descriptively. No inferential statistical analyses were planned for the safety data.
The condition of each subject was monitored throughout the study. Any AEs and remedial actions required were recorded. The nature, time of onset, duration, and severity were documented, together with the Investigator's opinion of the relationship to drug administration. Any clinically significant abnormalities found during the course of the study were followed up until they returned to normal or could be clinically explained.

Sequence of CYP3A4 (P08684 whole entry): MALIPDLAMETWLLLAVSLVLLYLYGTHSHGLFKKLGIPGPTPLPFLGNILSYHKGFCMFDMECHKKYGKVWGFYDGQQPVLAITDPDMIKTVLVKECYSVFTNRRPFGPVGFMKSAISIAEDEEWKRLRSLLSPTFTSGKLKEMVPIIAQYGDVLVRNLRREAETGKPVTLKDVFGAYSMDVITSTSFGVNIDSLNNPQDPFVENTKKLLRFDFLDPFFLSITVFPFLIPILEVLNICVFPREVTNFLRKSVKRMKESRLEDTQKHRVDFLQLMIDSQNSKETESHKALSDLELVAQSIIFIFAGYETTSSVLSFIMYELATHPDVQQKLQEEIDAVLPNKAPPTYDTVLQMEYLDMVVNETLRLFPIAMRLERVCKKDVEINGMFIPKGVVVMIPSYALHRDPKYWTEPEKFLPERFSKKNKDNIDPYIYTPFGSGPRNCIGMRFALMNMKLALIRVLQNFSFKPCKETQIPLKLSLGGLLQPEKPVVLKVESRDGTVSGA
Sequence of CYP2D6 (P10635 whole entry): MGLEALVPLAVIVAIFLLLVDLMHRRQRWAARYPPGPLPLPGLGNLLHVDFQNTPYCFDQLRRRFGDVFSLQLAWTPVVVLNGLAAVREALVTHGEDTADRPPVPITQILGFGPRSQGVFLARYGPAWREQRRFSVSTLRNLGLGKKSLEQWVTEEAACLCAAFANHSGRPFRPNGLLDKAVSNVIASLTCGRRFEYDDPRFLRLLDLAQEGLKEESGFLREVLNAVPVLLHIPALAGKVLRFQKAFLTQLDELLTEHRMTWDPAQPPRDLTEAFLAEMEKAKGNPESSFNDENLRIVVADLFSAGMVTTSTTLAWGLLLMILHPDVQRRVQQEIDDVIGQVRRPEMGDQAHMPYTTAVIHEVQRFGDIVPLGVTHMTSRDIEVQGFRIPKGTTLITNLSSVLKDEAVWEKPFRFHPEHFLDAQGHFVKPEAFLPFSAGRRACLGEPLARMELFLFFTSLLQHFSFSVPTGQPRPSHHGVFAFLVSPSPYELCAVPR
Sequence of CYP2C9 (P11712 whole entry): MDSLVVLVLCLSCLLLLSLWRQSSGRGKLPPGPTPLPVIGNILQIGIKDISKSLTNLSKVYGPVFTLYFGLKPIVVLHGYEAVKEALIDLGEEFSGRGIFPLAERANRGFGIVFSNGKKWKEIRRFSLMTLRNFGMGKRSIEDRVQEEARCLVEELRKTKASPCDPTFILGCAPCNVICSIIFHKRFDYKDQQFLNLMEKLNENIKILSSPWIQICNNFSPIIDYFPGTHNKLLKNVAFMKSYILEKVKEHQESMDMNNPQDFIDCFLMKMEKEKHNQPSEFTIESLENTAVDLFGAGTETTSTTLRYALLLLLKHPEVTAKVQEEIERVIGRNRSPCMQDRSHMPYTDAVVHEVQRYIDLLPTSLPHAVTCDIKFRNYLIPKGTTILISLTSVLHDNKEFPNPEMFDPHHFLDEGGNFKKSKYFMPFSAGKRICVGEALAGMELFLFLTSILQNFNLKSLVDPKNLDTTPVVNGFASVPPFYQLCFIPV

N#CC1(c2ccc(NC(=O)c3cccnc3NCc3ccncc3)cc2)CCCC1 [Rivoceranib, N-[4-(1-cyanocyclopentyl)phenyl]-2-{[(pyridin-4-yl)methyl]amino} pyridine-3-carboxamide]
rivoceranib consumed at 60 minute incubation ([1]; CYP1A2): less than 10% | % Remaining at 60 minute incubation ([1]; Recombinant CYP1A2, 5 μM): 94.7% | CLINT ([1]; Recombinant CYP1A2, 5 μM): 0.041 μL/minunte/mg | half-life at 5 µM ([1]; human, Recombinant CYP1A2, 5 μM, read-out: t½): 11.2 h | rivoceranib consumed at 60 minute incubation ([2]; CYP2B6): less than 10% | % Remaining at 60 minute incubation ([2]; Recombinant CYP2B6, 5 μM): 96.3% | CLINT ([2]; Recombinant CYP2B6, 5 μM): 0.020 μL/minunte/mg | half-life at 5 µM ([2]; human, Recombinant CYP2B6, 5 μM, read-out: t½): 5.73 h | rivoceranib consumed at 60 minute incubation ([3]; CYP2C8): less than 10% | % Remaining at 60 minute incubation ([3]; Recombinant CYP2C8, 5 μM): 103% | CLINT ([3]; Recombinant CYP2C8, 5 μM): 0.037 μL/minunte/mg | half-life at 5 µM ([3]; human, Recombinant CYP2C8, 5 μM, read-out: t½): 12.6 h | rivoceranib consumed at 60 minute incubation ([4]; CYP2C9): less than 10% | % Remaining at 60 minute incubation ([4]; Recombinant CYP2C9, 5 μM): 90.3% | CLINT ([4]; Recombinant CYP2C9, 5 μM): 0.119 μL/minunte/mg | half-life at 5 µM ([4]; human, Recombinant CYP2C9, 5 μM, read-out: t½): 3.9 h | rivoceranib consumed at 60 minute incubation ([5]; CYP2D6): more than 60% | % Remaining at 60 minute incubation ([5]; Recombinant CYP2D6, 5 μM): 34.9% | CLINT ([5]; Recombinant CYP2D6, 5 μM): 0.587 μL/minunte/mg | half-life at 5 µM ([5]; human, Recombinant CYP2D6, 5 μM, read-out: t½): 0.787 h | rivoceranib consumed at 60 minute incubation ([6]; CYP3A4): more than 60% | % Remaining at 60 minute incubation ([6]; Recombinant CYP3A4, 5 μM): 37.6% | CLINT ([6]; Recombinant CYP3A4, 5 μM): 0.704 μL/minunte/mg | half-life at 5 µM ([6]; human, Recombinant CYP3A4, 5 μM, read-out: t½): 0.657 h | tolerability ([7]; 200 mg single dose (freebase), healthy subjects and subjects with mild and moderate hepatic impairment): well tolerated | subjects with treatment-emergent adverse events (TEAEs) ([7]; 200 mg single dose, 27 subjects overall, both in the Mild hepatic impairment group): 2 (7.4%) subjects | laboratory, ECG, physical examination abnormalities ([7]; 200 mg single dose, all groups): no clinically significant laboratory, ECG, or physical examinations abnormalities | treatment emergent SAEs, TEAEs leading to discontinuation, deaths ([7]; 200 mg single dose, all groups): No treatment emergent serious adverse events (SAEs), TEAEs leading to discontinuation, or deaths
